Test results taken from ChEMBL document CHEMBL1201862, “PubChem BioAssay data set” (2004).
Calls of active or inactive are those of the source.

Tests used:
[1] = human group III sPLA2 inhibitors, dose response, biochemical, QFRET, IC50 (AID 743457);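 also: green fluorescence rise as the enzyme cleaves BODIPY PC-A2 in liposomes; potency for inhibition of the enzyme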
[2] = MC4R antagonists, dose response, counter-screen for LGR2 antagonist project, cell-based, plate reader, cherry pick (AID 743444); format: functional;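 also: transfected HEK 293 cells stimulated with alpha-MSH peptide; potency of inhibitors of the alpha-MSH evoked signal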
[3] = A549 cell cytotoxicity, dose response, cytotoxicity control, plate reader, cherry-pick, antagonist series (AID 743412); format: functional, cell-based
[4] = LGR2 antagonists, dose response, cell-based, HEK293, CRE-luciferase reporter, cherry pick (AID 743342); format: functional
[5] = target: T1, Carboxy-terminal domain RNA polymerase II polypeptide A small phosphatase 1 (Homo sapiens, UniProt Q9GZU7); assay: inhibitors of CTDSP1, concentration-response testing, biochemical assay, absorbance-based, actives from ultra-high-throughput screening (AID 540297); format: functional
T1 sequence (Q9GZU7 whole entry): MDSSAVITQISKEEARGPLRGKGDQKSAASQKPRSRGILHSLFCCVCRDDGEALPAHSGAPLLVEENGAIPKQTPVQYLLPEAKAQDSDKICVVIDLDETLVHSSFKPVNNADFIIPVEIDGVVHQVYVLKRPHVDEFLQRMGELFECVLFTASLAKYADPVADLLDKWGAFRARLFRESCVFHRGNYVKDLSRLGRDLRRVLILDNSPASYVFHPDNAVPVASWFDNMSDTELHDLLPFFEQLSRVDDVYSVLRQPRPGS

[6] = target: Dual specificity protein phosphatase 3 (Homo sapiens, UniProt P51452); assay: VHR phosphatase inhibition, dose response, selectivity assay for STEP inhibitor project, biochemical (AID 602374); format: functional; settings: read-out: IC50_Mean
[7] = target: T2, Tyrosine-protein phosphatase non-receptor type 22 (Homo sapiens, UniProt Q9Y2R2); assay: PTPN22 phosphatase inhibition, dose response, selectivity assay for STEP inhibitor project, biochemical (AID 624241); format: functional
T2 sequence (Q9Y2R2 whole entry): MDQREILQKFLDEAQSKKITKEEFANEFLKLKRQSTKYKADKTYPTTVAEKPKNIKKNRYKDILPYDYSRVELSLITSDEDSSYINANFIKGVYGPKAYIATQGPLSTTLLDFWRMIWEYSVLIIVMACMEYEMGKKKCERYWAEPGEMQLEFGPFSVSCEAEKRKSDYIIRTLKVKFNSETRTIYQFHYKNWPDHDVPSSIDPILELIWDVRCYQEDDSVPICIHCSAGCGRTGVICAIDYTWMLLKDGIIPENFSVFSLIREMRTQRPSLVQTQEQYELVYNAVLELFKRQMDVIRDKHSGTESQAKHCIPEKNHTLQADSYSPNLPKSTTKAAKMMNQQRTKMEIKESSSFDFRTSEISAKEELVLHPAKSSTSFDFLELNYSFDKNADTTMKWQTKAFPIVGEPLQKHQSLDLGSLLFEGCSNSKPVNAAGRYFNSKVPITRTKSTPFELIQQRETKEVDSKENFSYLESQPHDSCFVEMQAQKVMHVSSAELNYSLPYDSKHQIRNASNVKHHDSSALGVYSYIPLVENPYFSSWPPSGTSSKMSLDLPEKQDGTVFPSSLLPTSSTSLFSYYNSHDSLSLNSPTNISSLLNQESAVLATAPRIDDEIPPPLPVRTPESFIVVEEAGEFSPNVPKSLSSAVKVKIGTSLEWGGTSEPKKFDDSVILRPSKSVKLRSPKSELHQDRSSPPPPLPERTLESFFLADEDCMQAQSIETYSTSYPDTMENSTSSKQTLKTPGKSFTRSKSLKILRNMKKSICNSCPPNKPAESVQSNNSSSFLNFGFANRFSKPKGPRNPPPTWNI

[8] = target: Tyrosine-protein phosphatase non-receptor type 5 (Homo sapiens, UniProt P54829); assay: STEP phosphatase inhibitors, confirmation, biochemical, fluorescence intensity, uHTS hits (AID 602372); format: functional; settings: read-out: IC50_Mean
[9] = target: Eukaryotic translation initiation factor 4E (Mus musculus, UniProt P63073); assay: eIF4E–eIF4G protein interaction inhibitors, dose response, biochemical, TR-FRET (AID 855); format: functional;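 also: potency for disrupting eIF4E binding to eIF4GI seen as loss of FRET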
[10] = target: Tyrosine-protein phosphatase non-receptor type 11 (Homo sapiens, UniProt Q06124); assay: SHP2 phosphatase inhibition, dose response, selectivity assay for STEP inhibitor project, biochemical (AID 602367); format: functional; settings: read-out: IC50_Mean
Streptokinase A = target: T3, Streptokinase A (Streptococcus pyogenes serotype M1, UniProt P10520); assay: S. pyogenes streptokinase expression inhibitors, potency, dose response, plasminogen activation absorbance, OD405 (AID 1914); format: functional, Streptococcus pyogenes M1 GAS;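 also: secreted streptokinase activity via plasminogen activation per viability signal from cell pellet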
T3 sequence (P10520 whole entry): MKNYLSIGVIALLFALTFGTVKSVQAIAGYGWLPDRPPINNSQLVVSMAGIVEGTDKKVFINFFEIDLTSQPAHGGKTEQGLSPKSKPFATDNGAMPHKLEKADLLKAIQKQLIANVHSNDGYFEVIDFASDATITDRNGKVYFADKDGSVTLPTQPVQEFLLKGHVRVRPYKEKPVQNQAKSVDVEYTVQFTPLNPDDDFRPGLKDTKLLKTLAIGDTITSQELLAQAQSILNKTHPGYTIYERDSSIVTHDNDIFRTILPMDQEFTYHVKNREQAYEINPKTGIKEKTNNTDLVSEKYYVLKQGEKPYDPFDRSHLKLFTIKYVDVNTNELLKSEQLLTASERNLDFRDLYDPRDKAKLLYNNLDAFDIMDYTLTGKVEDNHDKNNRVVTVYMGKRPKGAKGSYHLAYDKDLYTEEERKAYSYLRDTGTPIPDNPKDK

Streptococcus = assay: Group A Streptococcus viability loss, dose response, counter-screen for streptokinase expression inhibitor project, luminescence, BacTiterGlo (AID 1915); format: functional, organism-based;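 also: potency for reduction of bacterial viability or growth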
[11] = control 3'UTR Renilla luciferase suppression, dose response, counter-screen for Shn3 inhibitor project, cell-based, Clone20-Shn3RL, cherry-picked (AID 624133); format: functional
[12] = HepG2 cell cytotoxicity, dose response, cytotoxicity control for Shn3 inhibitor project, CellTiter-Glo, cherry-picked (AID 624134); format: functional, cell-based
[13] = non-specific cell cytotoxicity, dose response, cytotoxicity control for PAX8 inhibitor project, plate reader, dry powder samples (AID 743021); format: functional, cell-based
Fatty acid synthase [14] = target: T4, Fatty acid synthase (Homo sapiens, UniProt P49327); assay: FAS thioesterase domain inhibitors, dose response, biochemical, endpoint fluorescence intensity, uHTS hits (AID 624327); format: functional;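 also: fluorescence from hydrolysis of an O-methyl fluorescein acyl ester substrate by the enzyme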
Fatty acid synthase [15] = target: T4, Fatty acid synthase; assay: FAS thioesterase domain inhibitors, dose response, biochemical, kinetic fluorescence intensity (AID 624326); format: functional;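 also: rate of fluorescence rise from hydrolysis of a fluorogenic O-methyl fluorescein ester substrate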
[16] = tested on: Streptococcus sp. 'group A'; assay: growth inhibition of control SK(-) GAS strain, dose response, counter-screen for streptokinase expression inhibitor project, luminescence, kanamycin, BacTiterGlo, confirmation (AID 1900); format: functional, organism-based
Paired box protein Pax-8 = Paired box protein Pax-8 (Homo sapiens, UniProt Q06710); assay: inhibitors of PAX8-driven TPO luciferase reporter, dose response, RMG-I cells, cherry-pick (AID 687027); format: functional, cell-based;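 also: luciferase reporter driven by Pax8 target thyroperoxidase promoter measured by SteadyGlo luminescence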
[17] = Shn3 3'UTR reporter inhibitors, dose response, cell-based, Clone20 osteoblasts, firefly luciferase, cherry-picked (AID 624132); format: functional;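 also: firefly luciferase luminescence from reporter carrying the Shn3 3'UTR in osteoblasts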
[18] = inhibitors of TNFa-stimulated NF-kB luciferase reporter, dose response, selectivity assay for EBV LMP1 NF-kB inhibitor project, HEK293 LMP1 reporter cells, dry powder, set 2 (AID 624369); format: functional
[19] = LMP1-driven NF-kB reporter inhibition, dose response, cell-based, luciferase reporter, luminescence, dry powder, set 2 (AID 624376); format: functional
[20] = HEK293T cytotoxicity, dose response, cytotoxicity control for miR-122 modulator project, cell-based, activator set, cherry-pick (AID 720690); format: functional;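 also: HEK293T human cells scored for general mammalian cytotoxicity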
[21] = miR-122 activators in hepatoma reporter cells, dose response, cell-based, Huh7 psiCHECK-miR122, Renilla luciferase, cherry-picked (AID 651956); format: functional;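 also: huh7 hepatoma cells stably carrying a psiCHECK-2 miR-122 sensor plasmid; renilla luciferase signal reporting endogenous miR-122 activity after 48 h compound exposure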

T4 sequence (P49327 whole entry, the tested form may be a part): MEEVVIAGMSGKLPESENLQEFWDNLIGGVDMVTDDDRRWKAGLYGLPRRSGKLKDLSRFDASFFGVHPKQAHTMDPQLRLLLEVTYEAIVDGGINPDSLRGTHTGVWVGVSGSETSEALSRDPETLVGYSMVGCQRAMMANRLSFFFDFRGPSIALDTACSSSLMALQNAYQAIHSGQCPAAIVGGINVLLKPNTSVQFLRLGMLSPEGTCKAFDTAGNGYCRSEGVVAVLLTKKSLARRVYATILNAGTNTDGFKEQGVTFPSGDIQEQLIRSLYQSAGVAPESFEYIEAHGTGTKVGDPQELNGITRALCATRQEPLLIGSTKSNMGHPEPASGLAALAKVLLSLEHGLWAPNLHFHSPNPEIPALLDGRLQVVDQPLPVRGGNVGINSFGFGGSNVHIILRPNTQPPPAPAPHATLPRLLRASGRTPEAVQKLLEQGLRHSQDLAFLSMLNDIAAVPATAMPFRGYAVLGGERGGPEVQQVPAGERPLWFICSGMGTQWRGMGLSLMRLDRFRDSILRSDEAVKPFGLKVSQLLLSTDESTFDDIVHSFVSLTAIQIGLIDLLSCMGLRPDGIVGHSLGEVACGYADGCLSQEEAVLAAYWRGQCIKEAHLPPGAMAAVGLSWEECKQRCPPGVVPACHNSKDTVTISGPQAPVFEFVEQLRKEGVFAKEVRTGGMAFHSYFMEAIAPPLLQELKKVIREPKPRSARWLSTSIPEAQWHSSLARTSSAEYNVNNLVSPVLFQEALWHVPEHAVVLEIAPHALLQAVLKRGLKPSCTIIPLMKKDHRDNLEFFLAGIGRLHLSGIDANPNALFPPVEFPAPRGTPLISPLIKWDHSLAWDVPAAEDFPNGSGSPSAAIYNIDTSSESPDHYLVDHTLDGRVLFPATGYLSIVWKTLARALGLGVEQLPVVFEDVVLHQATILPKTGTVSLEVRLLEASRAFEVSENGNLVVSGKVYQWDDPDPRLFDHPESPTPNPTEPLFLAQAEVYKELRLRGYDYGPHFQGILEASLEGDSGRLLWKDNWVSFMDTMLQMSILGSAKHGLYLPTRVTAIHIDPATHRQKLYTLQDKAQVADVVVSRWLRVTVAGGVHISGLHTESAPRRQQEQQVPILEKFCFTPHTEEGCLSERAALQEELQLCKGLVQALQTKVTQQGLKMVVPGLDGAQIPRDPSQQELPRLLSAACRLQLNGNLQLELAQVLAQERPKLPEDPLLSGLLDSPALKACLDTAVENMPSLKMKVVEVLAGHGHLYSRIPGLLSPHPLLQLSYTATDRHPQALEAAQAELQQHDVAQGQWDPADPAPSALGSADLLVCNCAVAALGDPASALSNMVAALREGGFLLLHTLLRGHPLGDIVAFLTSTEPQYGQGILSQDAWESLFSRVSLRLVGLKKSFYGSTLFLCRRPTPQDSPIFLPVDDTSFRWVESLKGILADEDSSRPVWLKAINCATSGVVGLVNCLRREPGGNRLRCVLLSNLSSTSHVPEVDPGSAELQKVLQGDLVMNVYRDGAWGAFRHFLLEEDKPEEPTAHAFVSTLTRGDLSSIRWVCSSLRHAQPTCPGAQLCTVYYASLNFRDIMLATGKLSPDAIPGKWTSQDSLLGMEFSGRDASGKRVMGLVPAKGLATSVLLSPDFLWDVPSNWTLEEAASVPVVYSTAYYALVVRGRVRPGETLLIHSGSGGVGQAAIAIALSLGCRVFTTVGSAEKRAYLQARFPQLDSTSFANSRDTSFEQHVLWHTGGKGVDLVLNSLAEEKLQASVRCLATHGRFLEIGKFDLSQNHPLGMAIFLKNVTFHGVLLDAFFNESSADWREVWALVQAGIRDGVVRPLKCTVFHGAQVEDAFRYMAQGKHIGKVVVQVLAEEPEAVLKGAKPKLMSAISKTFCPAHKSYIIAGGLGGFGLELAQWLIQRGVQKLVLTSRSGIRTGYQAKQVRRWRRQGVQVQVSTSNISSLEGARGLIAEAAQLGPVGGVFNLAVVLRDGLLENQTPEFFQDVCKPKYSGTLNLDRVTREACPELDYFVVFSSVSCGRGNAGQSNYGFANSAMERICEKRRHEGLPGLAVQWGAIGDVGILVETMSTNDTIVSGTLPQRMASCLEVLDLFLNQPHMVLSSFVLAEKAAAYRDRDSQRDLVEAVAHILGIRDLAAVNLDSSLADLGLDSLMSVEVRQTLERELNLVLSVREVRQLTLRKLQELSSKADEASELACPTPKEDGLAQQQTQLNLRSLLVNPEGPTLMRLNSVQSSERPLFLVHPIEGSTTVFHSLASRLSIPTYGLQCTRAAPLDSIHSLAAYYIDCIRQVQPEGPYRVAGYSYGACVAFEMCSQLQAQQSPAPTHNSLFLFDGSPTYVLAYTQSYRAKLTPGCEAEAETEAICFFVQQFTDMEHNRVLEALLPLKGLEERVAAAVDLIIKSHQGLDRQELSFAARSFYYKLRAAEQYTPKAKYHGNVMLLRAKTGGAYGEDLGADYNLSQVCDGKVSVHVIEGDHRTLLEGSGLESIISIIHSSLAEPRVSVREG
Chain of Eukaryotic translation initiation factor 4E (P63073 whole entry): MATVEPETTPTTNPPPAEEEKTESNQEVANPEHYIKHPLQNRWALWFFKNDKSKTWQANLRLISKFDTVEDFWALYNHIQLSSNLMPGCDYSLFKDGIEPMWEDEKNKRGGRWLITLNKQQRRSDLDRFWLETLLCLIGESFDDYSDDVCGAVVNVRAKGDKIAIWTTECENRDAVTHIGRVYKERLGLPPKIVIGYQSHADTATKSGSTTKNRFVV
Chain of Paired box protein Pax-8 (Q06710 whole entry): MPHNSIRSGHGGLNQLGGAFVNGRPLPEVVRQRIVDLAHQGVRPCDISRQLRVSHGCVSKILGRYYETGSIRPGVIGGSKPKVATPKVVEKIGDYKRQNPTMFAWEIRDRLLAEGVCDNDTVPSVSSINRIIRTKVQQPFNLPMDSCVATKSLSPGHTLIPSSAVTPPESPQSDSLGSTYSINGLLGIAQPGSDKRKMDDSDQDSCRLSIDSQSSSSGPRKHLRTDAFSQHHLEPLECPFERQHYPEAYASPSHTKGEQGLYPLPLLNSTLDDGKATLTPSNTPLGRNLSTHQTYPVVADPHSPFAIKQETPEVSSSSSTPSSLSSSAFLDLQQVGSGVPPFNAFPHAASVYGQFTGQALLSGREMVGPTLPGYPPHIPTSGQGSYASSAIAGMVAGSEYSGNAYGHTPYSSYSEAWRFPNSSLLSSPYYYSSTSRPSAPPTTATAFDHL
Chain of Dual specificity protein phosphatase 3 (P51452 whole entry): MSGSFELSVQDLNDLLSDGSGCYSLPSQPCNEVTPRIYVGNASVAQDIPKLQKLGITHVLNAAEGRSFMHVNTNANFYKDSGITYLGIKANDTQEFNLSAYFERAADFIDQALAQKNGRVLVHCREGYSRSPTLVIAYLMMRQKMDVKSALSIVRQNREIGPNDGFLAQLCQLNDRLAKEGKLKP
Chain of Tyrosine-protein phosphatase non-receptor type 5 (P54829 whole entry): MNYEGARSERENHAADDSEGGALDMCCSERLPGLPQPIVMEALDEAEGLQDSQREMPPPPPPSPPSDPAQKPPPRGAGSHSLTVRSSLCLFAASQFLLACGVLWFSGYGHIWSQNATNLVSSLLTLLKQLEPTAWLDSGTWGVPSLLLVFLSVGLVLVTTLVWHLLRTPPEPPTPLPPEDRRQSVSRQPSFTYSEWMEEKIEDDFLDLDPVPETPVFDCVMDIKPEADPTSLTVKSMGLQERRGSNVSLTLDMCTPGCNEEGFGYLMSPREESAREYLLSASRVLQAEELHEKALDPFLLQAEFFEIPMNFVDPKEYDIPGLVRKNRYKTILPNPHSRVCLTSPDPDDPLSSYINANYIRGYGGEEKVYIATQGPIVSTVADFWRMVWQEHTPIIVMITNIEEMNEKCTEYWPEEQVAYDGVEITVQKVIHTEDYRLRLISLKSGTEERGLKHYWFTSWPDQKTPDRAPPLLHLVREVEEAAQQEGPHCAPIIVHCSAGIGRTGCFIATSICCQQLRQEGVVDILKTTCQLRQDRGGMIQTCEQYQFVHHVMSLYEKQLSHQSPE
Chain of Tyrosine-protein phosphatase non-receptor type 11 (Q06124 whole entry): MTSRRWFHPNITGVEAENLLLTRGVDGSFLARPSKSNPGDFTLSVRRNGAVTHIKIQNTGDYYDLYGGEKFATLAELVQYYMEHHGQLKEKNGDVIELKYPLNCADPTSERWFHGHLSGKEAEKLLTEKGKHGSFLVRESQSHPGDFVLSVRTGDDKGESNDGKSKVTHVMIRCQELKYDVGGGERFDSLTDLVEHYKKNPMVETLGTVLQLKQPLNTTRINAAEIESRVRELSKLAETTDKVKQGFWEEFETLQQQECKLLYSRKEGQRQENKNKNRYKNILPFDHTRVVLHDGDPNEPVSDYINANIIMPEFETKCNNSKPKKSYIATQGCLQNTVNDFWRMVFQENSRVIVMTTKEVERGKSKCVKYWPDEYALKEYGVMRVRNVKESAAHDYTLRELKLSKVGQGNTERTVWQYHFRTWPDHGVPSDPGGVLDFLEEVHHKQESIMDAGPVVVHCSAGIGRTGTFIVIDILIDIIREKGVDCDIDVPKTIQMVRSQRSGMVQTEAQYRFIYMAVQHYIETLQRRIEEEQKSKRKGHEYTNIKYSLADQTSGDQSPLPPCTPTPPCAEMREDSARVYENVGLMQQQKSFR

Sc1nnc(COc2ccccc2)n1-c1ccc(Cl)cc1
IC50 [1]: > 122 µM (inactive)

C[C@H](CO)N1C[C@H](C)[C@H](CN(C)C(=O)Nc2cccc3ccccc23)OCCCC[C@H](C)Oc2ccc(NC(=O)CCC(F)(F)F)cc2C1=O
AC50 [2]: 2.95 µM (active) | AC50 [3]: 35 µM (active) | AC50 [4]: 4.02 µM (active)

O=C(O)c1ccc2c(c1)C(=O)N(c1cccc(-c3nc4ccccc4s3)c1)C2=O
IC50 [5]: 7.07 µM (active) | IC50 [6]: 6.02 µM (active) | IC50 [7]: 35.6 µM (inactive) | IC50 [8]: 8.03 µM (active) | IC50 [9]: 50 µM (inactive) | IC50 [10]: 6.24 µM (active)

CCOc1ccccc1NC(=O)c1nc(S(=O)(=O)Cc2ccccc2)ncc1Cl
EC50 (Streptokinase A): 1.98 µM (active) | EC50 (Streptococcus): 13.7 µM (active) | AC50 [11]: 6.36 µM (active) | AC50 [12]: 16.9 µM (active) | AC50 [13]: 21.7 µM (active) | IC50 (Fatty acid synthase [14]): 7.85 µM (active) | IC50 (Fatty acid synthase [15]): 7.5 µM (active) | EC50 [16]: 12.5 µM (active) | AC50 (Paired box protein Pax-8): 7.1 µM (active) | AC50 [17]: 0.376 µM (active)

COc1ccc(S(=O)(=O)N(C)C[C@@H]2Oc3ncc(/C=C/c4ccccc4)cc3C(=O)N([C@@H](C)CO)C[C@H]2C)cc1
AbsAC35 [18]: 77.19 µM | AbsAC35 [19]: 47.67 µM

C[C@H]1CCCCO[C@H](CN(C)Cc2ccc3c(c2)OCO3)[C@@H](C)CN([C@@H](C)CO)C(=O)c2cc(NC(=O)Nc3cccc4ccccc34)ccc2O1
AC50 [20]: 10 µM (active) | AC50 [21]: 10 µM (active)
